This note sets out measurements from US20040232089A1, “Biocidal compounds for treating water” (VANETTA S.p.A., priority 2003, published 2004).

The test system of data set [1] is Balanus amphitrite nauplii. Description: Barnacle efficacy test. Format: in vivo. Here is the method:
This efficacy tests was carried out by using Balanus amphitrite nauplii (Crustacea: Cirripedia). Specimens of this organism are collected in nature, and then maintained and reared in our laboratories, following a standard methodology. Adult organisms regularly produce larvae at the second naupliar stage, characterized by the typical triangular carapace, with a shield shape. […] Stage II nauplii have been used; immediately after their emission from adults larvae were divided and put in a beaker with […] filtered natural sea-water.

The test system of data set [2] is Tigriopus fulvus. Nature of the data set: Copepods efficacy test. The settings on record: Tigriopus fulvus nauplii. Format: in vivo. Here is the method: For that, efficacy test was carried out by using Tigriopus fulvus, it is a shallow-water marine species (Crustacea, Copepoda, Harpactico.da) characterized by […], all variously deep-orange coloured: five nauplius substages and five copepodid substages. Nauplii have a subcircular shape, are characterized by a single red eye, and develop within 6 to 7 days. Copepods are recognisable because of their abdominal segment formation, although the last substage is difficult to distinguish from the adult female at the end of the 7-day development period. Adult sizes range from 0.8 to 1.0 mm for males and from 1.0 to 1.2 mm for females. Sexual dimorphism is detectable only by the pincer shape of antenna 1, whereas ovigerous females can quickly be recognized because of their large egg sacs. T. fulvus is a vector for the transport of Vibrio spp; it is well documented that the persistence of V. cholerae in the aquatic environment is facilitated by its ability to colonize various substrates, including zooplankton surfaces (i.e., copepods).
Copepods, sampled in their natural habitat, have been moved through suitable containers to the laboratory, where they were subjected to a specific treatment. They were first filtered through a […] mesh, then washed with sterile sea-water and transferred to small 3 litres aquaria, with natural filtered (0.22 μm) sea water, T=20+0,5° C. Copepods were fed with microalgae (Chlorella spp, Tetraselmis suecica) and commercial yeast (Saccharomices spp). After the acclimatization period (one month), about 500 females were chosen and separated. The naupliar stage was then used for the efficacy test. […] Nauplii were used 24 hours after their hatching, multiwell plates (25 wells) were used for these tests, about 15 individuals for each well. Each concentration was performed in six replicates, plates were kept at dark, at 20° C.

Data set [3] is described as follows: Hydrolysis test carried out in the dark. Format: physicochemical. An excerpt:
From the hydrolysis test carried out in the dark, MNB and MPB appear to be readily degradable at a pH compatible with environmental conditions.

Data set [4] in a line: Biodegradability OECD 301 A (92/69/EEC C4-A). The settings on record: 7 days after the beginning of the test. Here is the method:
In fact, based on data available with respect to the most similar compounds to the menadione derivatives disclosed herein, one would expect a degradability in the range of 0% (percentage calculated based on the initial mass expressed in mg/l) typical of menadione (2-methyl-1,4-naphthalenedione) and 17% (assessed after 28 days) typical of menadione sodium bisulphite (which calculation was performed in accordance with the guidelines OECD301 A attached to directive EEC 92/69/EEC C4-A).
Finally biodegradability was also evaluated according to standard 92/69/EEC C4-A. From the data, both MNB and MPB result to have a remarkably better biodegradability than 2-methyl-1,4-naphthalenedione and particularly than MSB.

Data set [5] concerns Bacillus subtilis ATCC 10774. Nature of the data set: Disk diffusion test (Kirby-Bauer). Particulars: 100 μg MNB disk, 24 hours in the dark. Format: cell-based. Here is the method:
(§1) a) Kirby-Bauer assay was carried out after 24 hours in the dark.
(§2) In the disk diffusion susceptibility test, paper disks containing known amounts of MNB are placed on the surface of an agar plate that has been inoculated confluently with a standardized suspension of an indicator bacterial strain. The antimicrobial agent diffuses into the medium causing a zone of inhibition of growth of the strain around the disk corresponding to the susceptibility of the strain to that agent. Interpretative zone diameters have been established to permit classifying an isolate as belonging to the susceptible, intermediate resistance, or resistant categories of susceptibilities to an antimicrobial agent.
(§3) The disk diffusion method on agar plates was used to assess the biocide efficacy of a single concentration of MNB ([…]) against four aerobic quality control strains (Pseudomonas aeruginosa ATCC10145, Pseudomonas elongata NCIMB 1141, Bacillus subtilis ATCC 10774 and Staphylococcus aureus ATCC 25923).
(§4) Test results are summarised in Table 5 and represent the size of the inhibition halos in millimetres after contact with 100 μg MNB (Disk diffusion method).

For data set [6], the system named is Pseudomonas aeruginosa ATCC 10145. Description: Disk diffusion test (Kirby-Bauer). Format: cell-based. Particulars: 100 μg MNB disk, 24 hours in the dark. As to the method: as §1, §2, §3, §4
Data set [7] relates to Pseudomonas elongata NCIMB 1141. Nature of the data set: Disk diffusion test (Kirby-Bauer). Format: cell-based. Particulars: 100 μg MNB disk, 24 hours in the dark. Here is the method:
as §1, §2, §3, §4
A general note: Agar diffusion results depend on both activity and mobility in agar.

For data set [8], the system named is Staphylococcu aureus ATCC 25923. Description: Microdilution broth MIC/MBC. The settings on record: 24 h at 25° C., dark. Format: cell-based, Staphylococcus aureus. Here is the method:
b) Serial dilution test: the antibiotic activity is determined quantitatively by using the known sensitivity of a test strain towards an antibiotic which is expressed numerically as the minimal inhibitory concentration (MIC) and the minimal bactericidal concentration (MBC).
Procedure: serial dilutions of the antibiotic to be tested are pipetted into the antibiotic broth, this is then inoculated with a defined quantity of the relevant test strain (FIG. 4).
The Minimum Inhibitory Concentration (MIC) was defined as the lowest concentration of antibiotic which prevented visual turbidity after incubation.
The Minimum Bactericidal Concentration (MBC) is defined as the lowest concentration of an antibiotic killing the majority of a bacterial inoculum (99.9%, equivalent to a thousand-fold reduction of the inoculum). Method: Following a broth dilution MIC test, from each tube in the dilution series a defined volume (20 μL) is spread onto plates without antibiotics. […] The plates were incubate overnight (longer for slow growing bacteria) and then counted the number of colonies growing from each of the test tubes. The number of colonies corresponding to a thousand-fold reduction (MBC) can be calculated if the colony count of the start inoculum is known. […]
Antimicrobial assays were performed in dark, and results were read after 24 h of incubation at 25° C. […]
For orientation: In broth dilution the organism is exposed to a series of concentrations in liquid medium.

For `CC1(S(=O)(=O)O)CC(=O)c2ccccc2C1=O.NC(=O)c1cccnc1` (stereo not shown) [MNB, menadione nicotinamide bisulphite], the LC50 in data set [1] (24 hours) amounted to 0.228 µg/mL; in data set [1] (48 hours), 0.222 µg/mL; in data set [2] (24 hours), 0.156 µg/mL; in data set [2] (48 hours), 0.071 µg/mL; in data set [2] (72 hours), 0.039 µg/mL. The “½ LIFE (hydrolysis)” value in data set [3] (pH 6, 8, in the dark) is given as 48 h; in data set [3] (pH 9, in the dark), less than 3 h. In addition, the “degradability relative to that of MSB” value in data set [4] was “eight”. Further, the “size of the inhibition halos” value worked out at 0 mm in data set [5], 0 mm in data set [6] and 20 mm in data set [7]. In data set [8], this compound came in with an MBC of 16 µg/mL. For the same compound, in data set [8], the minimum inhibitory concentration (MIC) came out at 8 µg/mL.

As a reminder, the LC50 is the concentration that kills 50% of the test population. Low values mean a more lethal substance, high ones a less lethal substance. Usually MBC stands for the lowest tested concentration that kills the bacteria rather than only halting them. A high value points to less potent killing. In general, MIC refers to the least concentration at which growth counts as inhibited. A higher MIC goes with a less susceptible organism.
